Active and inactive are the calls of the source. No cut-off for these calls is given here.
Legend:
[1] = system: MDA-MB-231; assay: Induction of cell cycle arrest in human MDA-MB-231 cells assessed as accumulation of cells at G2/M phase at 0.5 to 1.5 uM measured after 48 hrs by 7-aminoactinomycin D/RNase staining based flow cytometry analysis (reference value: 14.3%); format: functional; conditions: dose 0.5-1.5 µM
[2] = Toxicity in female Balb/c nude mouse xenografted with human MDA-MB-231 cells assessed as pathological changes in heart at 2 to 5 mg/kg, iv administered via tail vein every 2 days for 16 days by H and E staining based analysis; format: organism-based; conditions: in vivo, 384 h, dose 2-5 mg/kg, time 16 day
[3] = Upregulation of IL-1A gene expression in human MDA-MB-231 cells assessed as fold change at 1 uM measured after 48 hrs by RNA-seq analysis relative to control; format: functional
[4] = Selectivity ratio of binding affinity to human TERT G4 DNA to binding affinity to Bcl-2 G4 DNA (unknown origin)
[5] = Toxicity in female Balb/c nude mouse xenografted with human MDA-MB-231 cells assessed as signs of pain at 2 to 5 mg/kg, iv administered via tail vein every 2 days for 16 days; format: organism-based; conditions: in vivo, 384 h, dose 2-5 mg/kg, time 16 day
[6] = Upregulation of TGFB2 gene expression in human MDA-MB-231 cells assessed as fold change at 1 uM measured after 48 hrs by RNA-seq analysis relative to control; format: functional
[7] = system: MDA-MB-231; assay: Cytotoxicity against human MDA-MB-231 cells without hTERT overexpression assessed as inhibition of cell growth measured after 48 hrs by MTT assay; format: functional, cell-based; conditions: MDA-MB-231, 48 h
[8] = species on record: Homo sapiens; assay: Selectivity ratio of binding affinity to human TERT G4 DNA to binding affinity to antisense i-hTERT DNA
[9] = system: MDA-MB-231; assay: Antitumor activity against human MDA-MB-231 cells xenografted in female Balb/c mouse assessed as reduction in tumor volume at 2 mg/kg, iv administered via tail vein every 2 days for 16 days relative to control; format: functional; design: scale not given: the % may be the effect or the level left; conditions: time 16 day
[10] = system: MDA-MB-231; assay: Inhibition of hTERT expression in human MDA-MB-231 cells assessed as reduction in pink foci in nucleus at 0.5 uM incubated for 48 hrs in presence of TBHP at 200 uM by immunofluorescence analysis; format: functional, cell-based
[11] = Toxicity in female Balb/c nude mouse xenografted with human MDA-MB-231 cells assessed as change in RBC count at 2 to 5 mg/kg, iv administered via tail vein every 2 days for 16 days; format: organism-based, Erythrocyte; conditions: in vivo, 384 h, dose 2-5 mg/kg, time 16 day
[12] = system: Quadruplex DNA; assay: Binding affinity to Telo21 G4 DNA (unknown origin) assessed as change in gibbs free energy at 400 uM by ITC analysis; format: nucleic-acid assay
[13] = Upregulation of RRAS gene expression in human MDA-MB-231 cells assessed as fold change at 1 uM measured after 48 hrs by RNA-seq analysis relative to control; format: functional
[14] = Toxicity in female Balb/c nude mouse xenografted with human MDA-MB-231 cells assessed as signs of skin tear at 2 to 5 mg/kg, iv administered via tail vein every 2 days for 16 days; format: organism-based; conditions: in vivo, 384 h, dose 2-5 mg/kg, time 16 day
[15] = Upregulation of S1PR1 gene expression in human MDA-MB-231 cells assessed as fold change at 1 uM measured after 48 hrs by RNA-seq analysis relative to control; format: functional
[16] = system: Quadruplex DNA; assay: Binding affinity to c-MYC Pu27 G4 DNA (unknown origin) assessed as change in enthalpy at 400 uM by ITC analysis; format: nucleic-acid assay
[17] = system: MDA-MB-231; assay: Downregulation of ND4 gene expression in human MDA-MB-231 cells at 1 uM measured after 48 hrs by RNA-seq analysis; format: functional, cell-based
[18] = system: MDA-MB-231; assay: Antitumor activity against human MDA-MB-231 cells xenografted in iv dosed female Balb/c mouse assessed as nucleolysis in tumor administered via tail vein every 2 days for 16 days by H and E staining based analysis; format: functional, organism-based; conditions: dose 2-5 mg/kg, time 16.0 day
[19] = Toxicity in female Balb/c nude mouse xenografted with human MDA-MB-231 cells assessed as signs of poor health at 2 to 5 mg/kg, iv administered via tail vein every 2 days for 16 days; format: organism-based; conditions: in vivo, 384 h, dose 2-5 mg/kg, time 16 day
[20] = system: MDA-MB-231; assay: Activation of apoptosis in human MDA-MB-231 cells assessed as upregulation of BAX protein expression measured after 48 hrs by Western blot analysis; format: functional, cell-based; conditions: dose 0-1.5 µM
[21] = species on record: Homo sapiens; assay: Binding affinity to antisense i-hTERT DNA assessed as change in enthalpy at 400 uM by ITC analysis
[22] = system: MDA-MB-231; assay: Induction of autophagy in human MDA-MB-231 cells assessed as upregulation of BNIP3L/Nix protein expression at 0 to 1.5 uM measured after 48 hrs by Western blot analysis; format: functional, cell-based; conditions: dose 0-1.5 µM
[23] = system: Quadruplex DNA; assay: Binding affinity to hTERT G4 DNA assessed as change in gibbs free energy at 400 uM by ITC analysis; format: nucleic-acid assay; conditions: Homo sapiens
[24] = species on record: Homo sapiens; assay: Binding affinity to antisense i-hTERT DNA assessed as thermal stability by measuring change in melting temperature at 400 uM […]
[25] = system: MDA-MB-231; assay: Induction of mitochondrial dysfunction in human MDA-MB-231 cells assessed as downregulation of mitochondrial respiratory complex I-NDUFB8 expression incubated for 48 hrs by Western blot analysis; format: functional, cell-based; conditions: dose 0-1.5 µM
[26] = Upregulation of PLK1 gene expression in human MDA-MB-231 cells assessed as fold change at 1 uM measured after 48 hrs by RNA-seq analysis relative to control; format: functional
[27] = Upregulation of PCBP3 gene expression in human MDA-MB-231 cells assessed as fold change at 1 uM measured after 48 hrs by RNA-seq analysis relative to control; format: functional
[28] = Toxicity in female Balb/c nude mouse xenografted with human MDA-MB-231 cells assessed as change in granulocyte count at 2 to 5 mg/kg, iv administered via tail vein every 2 days for 16 days; format: organism-based; conditions: in vivo, 384 h, dose 2-5 mg/kg, time 16 day
[29] = Toxicity in female Balb/c nude mouse xenografted with human MDA-MB-231 cells assessed as pathological changes in liver at 2 to 5 mg/kg, iv administered via tail vein every 2 days for 16 days by H and E staining based analysis; format: organism-based; conditions: in vivo, 384 h, dose 2-5 mg/kg, time 16 day
[30] = molecular target: Quadruplex DNA; assay: Binding affinity to c-MYC Pu27 G4 DNA (unknown origin) assessed as dissociation constant by ITC analysis; format: nucleic-acid assay
[31] = system: MDA-MB-231; assay: Induction of DNA damage in human MDA-MB-231 cells assessed as upregulation of 53BP1 protein expression measured after 48 hrs by Western blot analysis; format: functional, cell-based; conditions: dose 0-1.5 µM

- Selectivity ratio [4]: 2
- Selectivity ratio [8]: 3
- deltaG [12]: -7.49 kcal/mol
- deltaH [16]: -2.44 kcal/mol
- deltaH [21]: -1.2 kcal/mol
- deltaG [23]: -8.11 kcal/mol
- ΔTm [24]: 8.82 °C
- Kd [30]: 14.7 µM
SMILES: C[n+]1c(/C=C/c2c[nH]c3ccccc23)cc(/C=C2\Sc3ccccc3N2CCCN2CCC(C(F)(F)F)CC2)c2ccccc21.[I-]
- Activity [1]: 32%
- Activity [2]: Non-Toxic
- fold change (FC) [3]: >2
- Activity [5]: Non-Toxic
- fold change (FC) [6]: >2
- IC50 [7]: 1200 nM
- Activity [9]: 52.6%
- inhibition [10]: Active
- Activity [11]: Non-Toxic
- fold change (FC) [13]: >2
- Activity [14]: Non-Toxic
- fold change (FC) [15]: >2
- Activity [17]: Active
- Activity [18]: Dose-Dependent Effect
- Activity [19]: Non-Toxic
- Activity [20]: Dose-Dependent Effect
- Activity [22]: Active
- Activity [25]: Dose-Dependent Effect
- fold change (FC) [26]: >2
- fold change (FC) [27]: >2
- Activity [28]: Non-Toxic
- Activity [29]: Non-Toxic
- Activity [31]: Dose-Dependent Effect

Reference: ChEMBL document CHEMBL5550185, “Targeting hTERT Promoter G-Quadruplex DNA Structures with Small-Molecule Ligand to Downregulate hTERT Expression for Triple-Negative Breast Cancer Therapy” (J Med Chem, 2024)
